Columns and labels:
[1] = system: Leishmania major; experiment: In vitro susceptibility of Leishmania major amastigotes in murine monocyte-derived bone marrow macrophages (Giemsa counting); format: cell-based; conditions: for multiplication index: analysis of variance; for percentage of macrophages infected: by day five; for number of amastigotes found in infected cells: day five
Method: Monocyte-derived bone marrow macrophages from C57B1/6 naïve mice. These cells were harvested from the femoral bones and incubated for 7 days at 37° C. in 5% CO2 in complete tissue culture medium [DMEM, 20% heat inactivated fetal calf serum, 1% Penicillin/streptomycin, 1% glutamine, 1% pyruvate, 30% L-cell line supernatant]. After 7 days, 50×10^6 macrophages per mouse donor were recovered from the cultures. The cells were then washed and 1×10^6 macrophages were added to the wells (16 mm diameter) of a 24 well plate at the bottom of which was placed a round glass cover slip. The macrophages were added to the wells in 300 μl of culture medium consisting of RPMI 1640,10% heat inactivated fetal calf serum, 1% Penicillin/streptomycin, 1% glutamine, 2.5% BEPES, and 0.1% 2-mercaptoethanol.
Cryopreserved amastigotes of Leishmania major (Friedlin strain), originally obtained from footpad lesions of SCID mice, were thawed, washed with medium and counted in a hemocytometer, then re-suspended in complete medium and added to the wells at a concentration of 1 million per well (amastigote/macrophage ratio 1:1) in 50 μl of complete medium. The total volume of media in each well was […].
Amphotericin B (Fungizone, Gibco) was reconstituted from a lyophilized form and azithromycin (Zithromax, Pfizer) was prepared from a 500 mg-powder vial for IV use; both antibiotics were reconstituted in sterile water and diluted in complete medium to the desired concentration. Amphotericin B was used at a concentration of 1 mg/ml and azithromycin at concentrations of 0.1, 0.6, 3 and 15 μg/ml.
After mixing the macrophages with the amastigotes, the plates were incubated for 3 hrs. at 37° C. in 5% Co2; at that point the plates were washed with PBS to eliminate non-adherent macrophages and free amastigotes. Medium with or without antibiotics was added to the wells at a final volume of 3 ml. Some of the cultures were removed from the wells at this point and placed in petri dishes containing 50 mls of medium with antibiotics. Amphotericin B was used as a positive control group in all the experiments. The cultures were maintained at 37° C. in 5% CO2 and culture media and antibiotics were changed daily.
Before adding antibiotics on day 0 and on days 3 and 5, cover slips were recovered from the wells and petri dishes, immediately fixed and stained with Giemsa for counting, which was performed using 1000X magnification with immersion oil. All the experiments were carried out in duplicate.
Two cover slips were recovered from each time point and the data obtained for each slide was as follows: 200 to 300 macrophages were counted, number of infected macrophages per 100 macrophages and number of amastigotes per 100 macrophages was determined. The results reported are the mean values of those two parasite counts. Experiments were repeated a minimum of two times.

[2] = system: macrophages; conditions: levels versus that obtained in the serum (Gladue et al. 1989); cited from earlier work
[3] = amphotericin B at 1 mg/ml, Day 0 (before adding antibiotics)
[4] = amphotericin B at 1 mg/ml, Day 3
[5] = amphotericin B at 1 mg/ml, Day 5
[6] = 0.1 μg/ml azithromycin, Day 0 (before adding antibiotics)
[7] = 0.6 μg azithromycin, volume 3 ml, five days
[8] = 0.6 μg/ml azithromycin, Day 0 (before adding antibiotics)
[9] = 3.0 μg azithromycin, volume 3 ml, five days
[10] = 3.0 μg/ml azithromycin, Day 0 (before adding antibiotics)
[11] = 15 μg/ml azithromycin, Day 0 (before adding antibiotics)

C[C@@H]1[C@H](O)[C@@H](C)/C=C/C=C/C=C/C=C/C=C/C=C/C=C/[C@H](O[C@@H]2O[C@H](C)[C@@H](O)[C@H](N)[C@@H]2O)C[C@@H]2O[C@](O)(C[C@@H](O)C[C@@H](O)[C@H](O)CC[C@@H](O)C[C@@H](O)CC(=O)O[C@H]1C)C[C@H](O)[C@H]2C(=O)O [Amphotericin B]
multiplication index ([1]; 1 mg/ml of amphotericin B): significant reduction
Number of Amastigotes/100 macrophages [1, 3]: 27 /100 macrophages
Percent Infected Macrophages [1, 3]: 16%
Number of Amastigotes/100 macrophages [1, 4]: 1 /100 macrophages
Percent Infected Macrophages [1, 4]: 1%
Number of Amastigotes/100 macrophages [1, 5]: 0 /100 macrophages
Percent Infected Macrophages [1, 5]: 0%
percentage of macrophages infected ([1]; 1 mg/ml of amphotericin B): significant decrease
number of amastigotes found in infected cells ([1]; 1 mg/ml of amphotericin B): significant decrease

CC[C@H]1OC(=O)[C@H](C)[C@@H](O[C@H]2C[C@@](C)(OC)[C@@H](O)[C@H](C)O2)[C@H](C)[C@@H](O[C@@H]2O[C@H](C)C[C@H](N(C)C)[C@H]2O)[C@](C)(O)C[C@@H](C)CN(C)[C@H](C)[C@@H](O)[C@]1(C)O [azithromycin]
Number of Amastigotes/100 macrophages [1, 6]: 27 /100 macrophages
Percent Infected Macrophages [1, 6]: 16%
Number of Amastigotes/100 macrophages ([1]; 0.1 μg/ml azithromycin, Day 3): 10 /100 macrophages
Percent Infected Macrophages ([1]; 0.1 μg/ml azithromycin, Day 3): 8%
Number of Amastigotes/100 macrophages ([1]; 0.1 μg/ml azithromycin, Day 5): 38 /100 macrophages
Percent Infected Macrophages ([1]; 0.1 μg/ml azithromycin, Day 5): 24%
Number of Amastigotes/100 macrophages ([1]; 0.6 μg azithromycin, five days): 11 /100 macrophages
Number of Amastigotes/100 macrophages [1, 7]: 23 /100 macrophages
Percent Infected Macrophages [1, 7]: 17%
Percent Infected Macrophages ([1]; 0.6 μg azithromycin, volume 50 ml, five days): 10%
Number of Amastigotes/100 macrophages [1, 8]: 27 /100 macrophages
Percent Infected Macrophages [1, 8]: 16%
Number of Amastigotes/100 macrophages ([1]; 0.6 μg/ml azithromycin, Day 3): 14 /100 macrophages
Percent Infected Macrophages ([1]; 0.6 μg/ml azithromycin, Day 3): 28%
Number of Amastigotes/100 macrophages ([1]; 0.6 μg/ml azithromycin, Day 5): 11 /100 macrophages
Percent Infected Macrophages ([1]; 0.6 μg/ml azithromycin, Day 5): 17%
Number of Amastigotes/100 macrophages ([1]; 3.0 μg azithromycin, five days): 13 /100 macrophages
Number of Amastigotes/100 macrophages [1, 9]: 11 /100 macrophages
Percent Infected Macrophages [1, 9]: 9%
Percent Infected Macrophages ([1]; 3.0 μg azithromycin, volume 50 ml, five days): 11%
Number of Amastigotes/100 macrophages [1, 10]: 27 /100 macrophages
Percent Infected Macrophages [1, 10]: 16%
Number of Amastigotes/100 macrophages ([1]; 3.0 μg/ml azithromycin, Day 3): 45 /100 macrophages
Percent Infected Macrophages ([1]; 3.0 μg/ml azithromycin, Day 3): 31%
Number of Amastigotes/100 macrophages ([1]; 3.0 μg/ml azithromycin, Day 5): 13 /100 macrophages
Percent Infected Macrophages ([1]; 3.0 μg/ml azithromycin, Day 5): 9%
Number of Amastigotes/100 macrophages [1, 11]: 27 /100 macrophages
Percent Infected Macrophages [1, 11]: 16%
Number of Amastigotes/100 macrophages ([1]; 15 μg/ml azithromycin, Day 3): 13 /100 macrophages
Percent Infected Macrophages ([1]; 15 μg/ml azithromycin, Day 3): 10%
Number of Amastigotes/100 macrophages ([1]; 15 μg/ml azithromycin, Day 5): 12 /100 macrophages
Percent Infected Macrophages ([1]; 15 μg/ml azithromycin, Day 5): 9%
multiplication index ([1]; 0.6-15 μg/ml of azithromycin): significant reduction
ability to limit the replication of L. major (multiplication index) compared with 1 mg/ml of amphotericin B ([1]; 3 and 15 μg/ml of azithromycin): statistically equal
50% effective dose (ED50) ([1]; L. major in murine macrophages in vitro): < 0.6 µg/mL
percentage of macrophages infected ([1]; 0.6-15 μg/ml of azithromycin): significant decrease
number of amastigotes found in infected cells ([1]; 3.0-15 μg/ml of azithromycin): significant decrease
drug accumulation in the tissue cells, especially in macrophages, relative to serum [2]: 110 times

From patent US20020049167A1, “Azithromycin as a therapeutic agent for infections with leishmania parasites” (priority 2000, published 2002)
